In PubChem BioAssay AID1336 (NMMLSC, 2008):

molecular target: Ras-related protein Rab-7a (dog), GTP binding; test: blockers of fluorescent GTP binding to Rab7 – biochemical, wildtype, multiplex bead flow cytometry, dose response (AID 1336); details: bead-based flow cytometry

Row | SMILES | EC50
1 | Cc1sc(-n2c(C)cc(C=C3C(=O)NC(=O)NC3=O)c2C)c(C#N)c1C | 28.9 µM
2 | Cc1cc(C(=O)O)sc1CNCc1ccccc1Cl | 0.423 µM
3 | Cc1nn(Cc2ccccc2)c(Cl)c1C(=O)O | 3.54 µM
4 | O=C(O)c1ccccc1NCCc1ccc(Cl)cc1 | 0.339 µM
5 | COC(=O)c1cccnc1SCCc1ccccc1 | 14.2 µM
6 | N#Cc1c(-c2ccccc2)nc(SCC(=O)Nc2ccccc2)[nH]c1=O | 6.42 µM
7 | O=C(O)/C=C/c1cn(Cc2ccccc2)nc1-c1cccs1 | 2.35 µM
8 | O=C(O)c1ccccc1Sc1ncnc2sc3c(c12)CCC3 | 2.62 µM
9 | CCOc1ccc(/C=C2\SC(N3CCc4ccccc4C3)=NC2=O)cc1 | 11.5 µM
10 | O=C1CN=C(c2ccccc2)c2cc(Br)ccc2N1Cc1cc(=O)n2ccccc2n1 | 2.71 µM
11 | CC(C)C(NCc1c(Cl)cccc1Cl)C(=O)O (configuration not stated) | 2.23 µM
12 | Cc1cc(C(=O)Oc2ccccc2C(=O)O)c(C)o1 | 0.81 µM
